# Results published in patent publication US8741932B2, “Imidazopyridine derivatives” (Piramal Enterprises Limited, priority 2009, dated 2014).
# Tests used:
# [1] = system: PC3; assay: Cytotoxicity assay (propidium iodide), PC3; conditions: Homo sapiens, PC-3, 48 h, read-out: IC50 cytotoxicity
# [2] = system: MCF7; assay: Cytotoxicity assay (propidium iodide), MCF7; type: cell-based; conditions: Homo sapiens; MCF7 (C6c, breast); 48 hours
# Experimental: (§1) Cells from cell lines as mentioned in the table given below were seeded at a density of 3000 cells/well in a white opaque 96-well plate. Following incubation at 37° C./5% CO2 for a period of 18-24 hours, the cells were treated with various concentrations (stock solution was prepared in DMSO and subsequent dilutions were made in media as per ATCC guidelines) of the representative compounds of present invention (refer table 3) for a period of 48 hours. At the end of treatment, the spent culture medium was discarded, the cells were washed with 1×PBS and 200 μl of 7 μg/ml propidium iodide was added to each well. The plates were frozen at −70° C. for at least 24 hours. For analysis, the plates were brought to RT, allowed to thaw and were read in PolarStar fluorimeter with the fluorescence setting. The percentage of viable cells in the non treated set of wells was considered to be 100 and the percentage viability following treatment was calculated accordingly. IC50 values were calculated from graphs plotted using these percentages.
# [3] = system: H460; assay: Cytotoxicity assay (propidium iodide), H460; type: cell-based; conditions: Homo sapiens, NCI-H460; H460 (C1b, lung); 48 hours
# Experimental: as §1
# [4] = system: TNF-α; assay: Synovial tissue assay, TNF-α; type: cell-based; conditions: Homo sapiens; synovial tissue cells from rheumatoid arthritis patients, 16 hours
# Experimental: The assay was designed as in the reference, Lancet, 2(8657), 244-7, Jul.
# Stock Solution: Compounds of the present invention were dissolved in DMSO to obtain a stock solution of 20 mM.
# Synovial tissue was obtained from rheumatoid arthritis patients undergoing knee replacement surgery. The tissue was minced into small pieces and digested in RPMI medium containing 100 U/ml penicillin-G, 100 μg/ml streptomycin, 50 ng/ml amphotericin B (GIBCO; USA), 1.33 mg/ml collagenase Type I (Worthington Biochemical Corporation, New Jersey), 0.5 μg/ml DNAse Type I (Sigma Aldrich; St. Louis, Mo.) and 8.33 U/ml heparin (Biological E. Limited, India) for 3 hours at 37° C., 5% CO2. The digested tissue was filtered through a membrane (mesh size 70 micron; Sigma Aldrich). Subsequently, the cells were washed 3 times and resuspended in complete medium (RPMI supplemented with 5% FBS and 5% human serum-AB+) at a concentration of 1×10^6 cells/ml. All cell washes in this assay were performed using Rosewall Park Memorial Institute (RPMI)-1640 medium (JRH; Australia). For the experiment, 100 μl of cell suspension was added to the wells of a 96-well culture plate. Following cell plating, 100 μl of the culture medium and 1 μl of various concentrations (0.01, 0.03, 0.1, 0.3, 1, 3, 10, 30 and 100 μM) of the compounds of present invention dissolved in DMSO were added to the cells. The final concentration of DMSO was adjusted to 0.5%. For experimental purposes, 1 μl of […] concentrated solution of the compounds of present invention were dissolved in 200 μl cell suspension to achieve a final concentration of 0.01, 0.03, 0.1, 0.3, 1, 3, 10, 30 and 100 μM. The vehicle (0.5% DMSO) was used as control. 10 μM dexamethasone (Sigma Aldrich) or 1 μM 7-hydroxyfluorinide (7HF) were used as standards for the experiments. The plates were incubated for 16 hours at 37° C., 5% CO2. Subsequently, the supernatants were harvested and stored at −70° C. The amounts of TNF-α, IL-6 and interleukin-8 (IL-8) in the supernatants were assayed using OptiEIA ELISA sets, (BD BioSciences Pharmingen). The protocol followed was as per manufacturers instructions. […] The cytotoxicity of test compounds in synovial cells was assessed by MTS assay. Absorbance was measured at 490 nm. Percent cytotoxicity was calculated by the equation: % Cytotoxicity=(A−B)/A×100 where, A is the absorbance of cells treated with DMSO alone and B is the absorbance of cells treated with the test article.
# [5] = system: BT 549; assay: Cytotoxicity assay (propidium iodide), BT 549; type: cell-based; conditions: Homo sapiens; BT 549 (C6d, breast); 48 hours
# Experimental: as §1
# [6] = target: T1, mTOR (Homo sapiens, UniProt P42345); assay: mTOR activity assay (cell ELISA, Phospho-AKT Ser 473, A2780 cells); type: cell-based; conditions: for inhibition at 1 µM: read-out: % Inhibition of mTOR activity at 1 μM
# T1 construct: endogenous in cells; host or cells: A2780 ovarian cell line (ATCC)
# Summary of the method: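 A2780 cells adhered 18-24 h, serum-starved 24 h, then stimulated with 20% FCS for 30 min alongside compound-treated sets. Fixed cells probed for phospho-AKT Ser473 by HRP/OPD cell ELISA, absorbance 490 nm. Values given as percentage or fold decrease in AKT phosphorylation relative to stimulated cells.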
# [7] = system: MDA MB 231; assay: Cytotoxicity assay (propidium iodide), MDA MB 231; type: cell-based; conditions: Homo sapiens; MDA MB 231 (C6a, breast); 48 hours
# Experimental: as §1
# [8] = system: FaDu; assay: Cytotoxicity assay (propidium iodide), FaDu; type: cell-based; conditions: Homo sapiens; FaDu (C11a, hypopharyngeal); 48 hours
# Experimental: as §1
# [9] = system: MDA MB 468; assay: Cytotoxicity assay (propidium iodide), MDA MB 468; type: cell-based; conditions: Homo sapiens; MDA MB 468 (C6b, breast); 48 hours
# Experimental: as §1
# [10] = system: RPMI 8226; assay: Cytotoxicity assay (propidium iodide), RPMI 8226; type: cell-based; conditions: Homo sapiens; RPMI 8226 (C7b, multiple myeloma); 48 hours
# Experimental: as §1
# [11] = system: U 373; assay: Cytotoxicity assay (propidium iodide), U 373; type: cell-based; conditions: Homo sapiens, U373 MG; U 373 (C8a, glioblastoma); 48 hours
# Experimental: as §1
# [12] = system: U266B1; assay: Cytotoxicity assay (propidium iodide), U266B1; type: cell-based; conditions: U266B1 (C7a, multiple myeloma); 48 hours
# Experimental: as §1
IC50 [4] [µM],IC50 [6] [nM],inhibition at 1 µM [6] [%],SMILES,IC50 [1] [nM],IC50 [2] [nM],IC50 [3] [nM],IC50 [5] [nM],IC50 [7] [nM],IC50 [8] [nM],IC50 [9] [nM],IC50 [10] [nM],IC50 [11] [nM],IC50 [12] [nM]
0.01 to 0.3,,30 to 50,"CN(N=Cc1cnc2ccc(-c3cccnc3)cn12)S(=O)(=O)c1cc(F)cc(F)c1 [Example 16, 3,5-Difluoro-N-methyl-N′-((6-(pyridine-3-yl)imidazo[1,2-a]pyridine-3-yl)methylene) benzenesulfonohydrazide]",,,,,,,,,,
0.01 to 0.3,1000 to 5000,,"CN(N=Cc1cnc2ccc(-c3cccnc3)cn12)S(=O)(=O)c1cccc(F)c1 [Example 5, 3-Fluoro-N-methyl-N′-((6-(pyridine-3-yl)imidazo[1,2-a]pyridine-3-yl)methylene)benzenesulfonohydrazide]",,,,,,10 to 5000,,,,
0.01 to 0.3,,30 to 50,"CN(N=Cc1cnc2ccc(-c3cccnc3)cn12)S(=O)(=O)c1ccc(F)cc1 [Example 6, 4-Fluoro-N-methyl-N′-((6-(pyridine-3-yl)imidazo[1,2-a]pyridine-3-yl)methylene)benzenesulfonohydrazide]",,,,,,10 to 5000,,,,

# Second part, the compound before the results:
SMILES,IC50 [4] [µM],IC50 [6] [nM],inhibition at 1 µM [6] [%],IC50 [1] [nM],IC50 [2] [nM],IC50 [3] [nM],IC50 [5] [nM],IC50 [7] [nM],IC50 [8] [nM],IC50 [9] [nM],IC50 [10] [nM],IC50 [11] [nM],IC50 [12] [nM]
Cc1ccc([N+](=O)[O-])cc1S(=O)(=O)N(C)N=Cc1cnc2ccc(-c3cccnc3)cn12 [Example 25],0.01 to 0.3,1000 to 5000,,10 to 5000,10 to 5000,10 to 5000,10 to 5000,10 to 5000,,,,,
"Cc1ccc(F)cc1S(=O)(=O)N(C)N=Cc1cnc2ccc(-c3cccnc3)cn12 [Example 21, 5-Fluoro-N, 2-dimethyl-N′-((6-(pyridine-3-yl)imidazo[1,2-a]pyridine-3-yl)methylene) benzenesulfonohydrazide]",0.01 to 0.3,1000 to 5000,,10 to 5000,10 to 5000,10 to 5000,10 to 5000,10 to 5000,,10 to 5000,10 to 5000,10 to 5000,10 to 5000
